# Starred links: 1 amine or outer side, 2 acyl side, 3 side chain; linkers in the order of their positions; H or OH if unused. Positions of bridges follow the written chain, without caps; N, C: chain ends. Non-standard residues stand in square brackets, D forms with d. Residues, ends and D or L forms follow the SMILES beside them. *: point of attachment. hPhe(3-Cl-4-CF3) = N[C@@H](CCc1ccc(C(F)(F)F)c(Cl)c1)C(=O)O; NMeDab(N,N-(CH2CF2CH2)) = CN[C@@H](CCN1CC(F)(F)C1)C(=O)O; hPhe(3-F,4-CF3) = N[C@@H](CCc1ccc(C(F)(F)F)c(F)c1)C(=O)O; hPhe(4-CF3) = N[C@@H](CCc1ccc(C(F)(F)F)cc1)C(=O)O; NMePhe(4-Cl) = CN[C@@H](Cc1ccc(Cl)cc1)C(=O)O; X4 = O=C([C@H](Cc1cc(F)cc(Cl)c1)N[*:1])[*:2]; NMePhe(4-Me) = CN[C@@H](Cc1ccc(C)cc1)C(=O)O; NMeNle(6-CHF2) = CN[C@@H](CCCCC(F)F)C(=O)O; NMedβ3hAla = C[C@H](CC(=O)[*:2])N(C)[*:1]; hPhe(4-F) = N[C@@H](CCc1ccc(F)cc1)C(=O)O; Phe(3-I) = N[C@@H](Cc1cccc(I)c1)C(=O)O; dαMeGly(allyl) = C=CC[C@@](C)(N)C(=O)O; Phe(2-F) = N[C@@H](Cc1ccccc1F)C(=O)O; NMe4Pal = CN[C@@H](Cc1ccncc1)C(=O)O; NMeCha = CN[C@@H](CC1CCCCC1)C(=O)O; NMeChg = CN[C@H](C(=O)O)C1CCCCC1; NMeF = CN[C@@H](Cc1ccccc1)C(=O)O; NMeD = CN[C@@H](CC(=O)O)C(=O)O; NMeL = CN[C@@H](CC(C)C)C(=O)O; NMeV = CN[C@H](C(=O)O)C(C)C; d(β3hA) = C[C@@H](N)CC(=O)O; NMeS = CN[C@@H](CO)C(=O)O; Pip = O=C(O)[C@@H]1CCCCN1; NMeA = CN[C@@H](C)C(=O)O; NMeAib = CNC(C)(C)C(=O)O; Piperidide = C1CCN(*)CC1; Pyrrolidide = C1CCN(*)C1; Ac5c = NC1(C(=O)O)CCCC1; Aze = O=C(O)[C@@H]1CCN1; Aib = CC(C)(N)C(=O)O; Sar = CNCC(=O)O
# Target: T1, Kras and SOS1 (biotin-tagged human Kras loaded with GDP, His-tagged human SOS1) (Homo sapiens, UniProt P01116, G12D)
# T1 construct: made in house; host or cells: E. coli (stated for Kras only)
# T1 sequence (P01116 1-188 isoform P01116-2 G12D): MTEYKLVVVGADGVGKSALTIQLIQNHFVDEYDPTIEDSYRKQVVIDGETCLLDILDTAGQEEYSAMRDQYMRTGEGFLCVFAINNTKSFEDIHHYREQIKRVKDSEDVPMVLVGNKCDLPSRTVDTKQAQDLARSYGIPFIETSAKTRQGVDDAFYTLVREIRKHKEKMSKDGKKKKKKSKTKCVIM
# Test: Protein-protein interaction inhibition between Kras and SOS1 (KrasGl2D-SOS PPI) using AlphaScreen
# Assay type: binding
# Settings: AlphaScreen; biotin-tagged human Kras loaded with GDP, His-tagged human SOS1; read-out: KRAS G12D-SOS PPI IC50
# In short: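 Kras was produced in E. coli, purified, then loaded with GDP. It was paired via streptavidin acceptor beads with His-SOS1 held on nickel donor beads, and proximity signal at 520-620 nm was read after 680 nm illumination.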
row,SMILES,IC50
1,CC[C@H](C)[C@@H]1NC(=O)[C@H](COC)N(C)C(=O)C[C@@H](C(=O)N2CCCCC2)N(C)C(=O)[C@H](C(C)C)N(C)C(=O)C2(CCCC2)NC(=O)[C@@H]2CCCN2C(=O)[C@H](CCc2ccc(C(F)(F)F)c(Cl)c2)NC(=O)CN(C)C(=O)[C@H](CC2CCCCC2)N(C)C(=O)[C@@H]2CCN2C(=O)[C@H](C)N(C)C1=O [Compound 636] ([NMeS](Me)I[NMeA][Aze][NMeCha][Sar][hPhe(3-Cl-4-CF3)]P[Ac5c][NMeV][NMeD]-Piperidide; lactam N-11),1.1 nM
2,CC[C@H](C)[C@@H]1NC(=O)[C@H](C)N(C)C(=O)C[C@@H](C(=O)N2CCCCC2)NC(=O)[C@H](CC(C)C)N(C)C(=O)[C@H](Cc2ccccc2)N(C)C(=O)[C@H](CC(C)C)NC(=O)[C@H](Cc2cccc(I)c2)NC(=O)CN(C)C(=O)[C@H](Cc2ccc(Cl)cc2)N(C)C(=O)CN(C)C(=O)CN(C)C1=O [Compound 637] ([NMeA]I[Sar][Sar][NMePhe(4-Cl)][Sar][Phe(3-I)]L[NMeF][NMeL]D-Piperidide; lactam N-11),26 nM
3,CC[C@H](C)[C@@H]1NC(=O)[C@H](CC(C)C)N(C)C(=O)C[C@@H](C(=O)N2CCCCC2)N(C)C(=O)[C@H](CC(C)C)NC(=O)C(C)(C)N(C)C(=O)[C@H](Cc2ccccc2F)NC(=O)[C@H](Cc2cccc(I)c2)NC(=O)CN(C)C(=O)[C@H](Cc2ccc(C)cc2)N(C)C(=O)[C@@H]2CCN2C(=O)CN(C)C1=O [Compound 638] ([NMeL]I[Sar][Aze][NMePhe(4-Me)][Sar][Phe(3-I)][Phe(2-F)][NMeAib]L[NMeD]-Piperidide; lactam N-11),45 nM
4,CC[C@H](C)[C@@H]1NC(=O)[C@H](CC(C)C)N(C)C(=O)C[C@@H](C)NC(=O)[C@H](C(C)C)N(C)C(=O)C(C)(C)NC(=O)[C@@H]2CCCN2C(=O)[C@H](CCc2ccc(C(F)(F)F)c(Cl)c2)NC(=O)CN(C)C(=O)[C@H](CC2CCCCC2)N(C)C(=O)CN(C)C(=O)CN(C)C1=O [Compound 641] (cyclo([Aib][NMeV][d(β3hA)][NMeL]I[Sar][Sar][NMeCha][Sar][hPhe(3-Cl-4-CF3)]P)),18 nM
5,CC[C@H](C)[C@@H]1NC(=O)[C@H](C(C)C)N(C)C(=O)C[C@@H](C)NC(=O)[C@H](CC(C)C)N(C)C(=O)C2(CCCC2)NC(=O)[C@H](CC(C)C)N(C)C(=O)[C@H](CCc2ccc(C(F)(F)F)cc2)NC(=O)CN(C)C(=O)[C@H](Cc2ccc(Cl)cc2)N(C)C(=O)[C@@H]2CCN2C(=O)CN(C)C1=O [Compound 645] (cyclo([Ac5c][NMeL][d(β3hA)][NMeV]I[Sar][Aze][NMePhe(4-Cl)][Sar][hPhe(4-CF3)][NMeL])),58 nM
6,CC[C@H](C)[C@@H]1NC(=O)[C@H](C)N(C)C(=O)C[C@@H](C(=O)N2CCCC2)NC(=O)[C@H](CC(C)C)N(C)C(=O)[C@H](Cc2ccccc2)N(C)C(=O)[C@H](CC(C)C)NC(=O)[C@H](CCc2ccc(F)cc2)NC(=O)CN(C)C(=O)[C@H](Cc2ccc(Cl)cc2)N(C)C(=O)CN(C)C(=O)CN(C)C1=O [Compound 646] ([NMeA]I[Sar][Sar][NMePhe(4-Cl)][Sar][hPhe(4-F)]L[NMeF][NMeL]D-Pyrrolidide; lactam N-11),120 nM
7,"CC[C@H](C)[C@@H]1NC(=O)[C@@H]2CCCCN2C(=O)C[C@@H](C)N(C)C(=O)[C@H](CC(C)C)NC(=O)C(C)(C)N(C)C(=O)[C@H](CC(C)C)NC(=O)[C@H](CCc2ccc(C(F)(F)F)c(F)c2)NC(=O)CN(C)C(=O)[C@H](CC2CCCCC2)N(C)C(=O)CN(C)C(=O)CN(C)C1=O [Compound 649] (cyclo(I[Sar][Sar][NMeCha][Sar][hPhe(3-F,4-CF3)]L[NMeAib]L[NMedβ3hAla][Pip]))",360 nM
8,CC[C@H](C)[C@@H]1NC(=O)[C@H](CC(C)C)N(C)C(=O)C[C@@H](C(=O)N2CCCCC2)N(C)C(=O)[C@H](CCCCC(F)F)N(C)C(=O)C2(CCCC2)NC(=O)[C@@H]2CCCN2C(=O)[C@H](CCc2ccc(C(F)(F)F)c(Cl)c2)NC(=O)CN(C)C(=O)[C@H](CC2CCCCC2)N(C)C(=O)CN(C)C(=O)CN(C)C1=O [Compound 653] ([NMeL]I[Sar][Sar][NMeCha][Sar][hPhe(3-Cl-4-CF3)]P[Ac5c][NMeNle(6-CHF2)][NMeD]-Piperidide; lactam N-11),44 nM
9,CC[C@H](C)[C@@H]1NC(=O)[C@H](C)N(C)C(=O)C[C@@H](C)NC(=O)[C@H](CC(C)C)N(C)C(=O)[C@H](Cc2ccccc2)N(C)C(=O)[C@@H]2CCN2C(=O)[C@H](CCc2ccc(C(F)(F)F)cc2)NC(=O)CN(C)C(=O)[C@H](Cc2ccc(Cl)cc2)N(C)C(=O)CN(C)C(=O)CN(C)C1=O [Compound 654] (cyclo([Aze][NMeF][NMeL][d(β3hA)][NMeA]I[Sar][Sar][NMePhe(4-Cl)][Sar][hPhe(4-CF3)])),110 nM
10,"CC[C@H](C)[C@@H]1NC(=O)[C@H](C)N(C)C(=O)C[C@@H](C(=O)N2CCCCC2)N(C)C(=O)[C@H](C(C)C)N(C)C(=O)[C@H](COC)NC(=O)[C@H](CCN2CC(F)(F)C2)N(C)C(=O)[C@H](CCc2ccc(C(F)(F)F)c(Cl)c2)NC(=O)CN(C)C(=O)[C@H](CC2CCCCC2)N(C)C(=O)CN(C)C(=O)CN(C)C1=O [Compound 655] ([NMeA]I[Sar][Sar][NMeCha][Sar][hPhe(3-Cl-4-CF3)][NMeDab(N,N-(CH2CF2CH2))]S(Me)[NMeV][NMeD]-Piperidide; lactam N-11)",4.9 nM
11,CC[C@H](C)[C@@H]1NC(=O)[C@H](CC(C)C)N(C)C(=O)C[C@@H](C(=O)N2CCCCC2)N(C)C(=O)[C@H](C2CCCCC2)N(C)C(=O)C2(CCCC2)NC(=O)[C@H](Cc2ccncc2)N(C)C(=O)[C@H](CCc2ccc(C(F)(F)F)c(Cl)c2)NC(=O)CN(C)C(=O)[C@H](CC2CCCCC2)N(C)C(=O)[C@@H]2CCN2C(=O)[C@H](C)N(C)C1=O [Compound 656] ([NMeL]I[NMeA][Aze][NMeCha][Sar][hPhe(3-Cl-4-CF3)][NMe4Pal][Ac5c][NMeChg][NMeD]-Piperidide; lactam N-11),17 nM
12,CC[C@H](C)[C@@H]1NC(=O)[C@H](C)N(C)C(=O)C[C@@H](C(=O)N2CCCC2)NC(=O)[C@H](CC(C)C)N(C)C(=O)[C@H](Cc2ccccc2)N(C)C(=O)[C@H](CC(C)C)NC(=O)[C@H](Cc2cc(F)cc(Cl)c2)NC(=O)CN(C)C(=O)[C@H](Cc2ccc(Cl)cc2)N(C)C(=O)CN(C)C(=O)CN(C)C1=O [Compound 657] ([NMeA]I[Sar][Sar][NMePhe(4-Cl)][Sar][X4]L[NMeF][NMeL]D-Pyrrolidide; lactam N-11),310 nM
13,CC[C@H](C)[C@@H]1NC(=O)[C@H](C)N(C)C(=O)C[C@@H](C)NC(=O)[C@H](CC(C)C)N(C)C(=O)C(C)(C)NC(=O)[C@@H]2CCCN2C(=O)[C@H](CCc2ccc(C(F)(F)F)cc2)NC(=O)CN(C)C(=O)[C@H](Cc2ccc(Cl)cc2)N(C)C(=O)CN(C)C(=O)CN(C)C1=O [Compound 664] (cyclo([Aib][NMeL][d(β3hA)][NMeA]I[Sar][Sar][NMePhe(4-Cl)][Sar][hPhe(4-CF3)]P)),25 nM
14,C=CC[C@@]1(C)NC(=O)[C@@H]2CCCN2C(=O)[C@H](CCc2ccc(C(F)(F)F)c(Cl)c2)NC(=O)CN(C)C(=O)[C@H](CC2CCCCC2)N(C)C(=O)CN(C)C(=O)CN(C)C(=O)[C@H]([C@@H](C)CC)NC(=O)[C@H](CC(C)C)N(C)C(=O)C[C@@H](C)NC(=O)[C@H](C(C)C)N(C)C1=O [Compound 665] (cyclo(I[Sar][Sar][NMeCha][Sar][hPhe(3-Cl-4-CF3)]P[dαMeGly(allyl)][NMeV][d(β3hA)][NMeL])),37 nM

# From patent US12371454B2, “Cyclic peptide compound having Kras inhibitory action” (priority 2019, dated 2025)
